Results published in ChEMBL document CHEMBL1671662, “In vitro activities of telavancin and six comparator agents against anaerobic bacterial isolates” (2009).

Experiments:
Assay type in all cases: functional
Hoylesella loescheii = assay: Antibacterial activity against Prevotella loescheii by CLSI M11-A6 agar dilution method
Prevotella oris = assay: Antibacterial activity against Prevotella oris by CLSI M11-A6 agar dilution method; conditions: Segatella oris
[1] = tested on: Coprobacillus cateniformis; assay: Antibacterial activity against Coprobacillus cateniformis by CLSI M11-A6 agar dilution method
[2] = tested on: Clostridium sporosphaeroides; assay: Antibacterial activity against Clostridium sporosphaeroides by CLSI M11-A6 agar dilution method; conditions: Faecalispora sporosphaeroides
Clostridium subterminale = assay: Antibacterial activity against Clostridium subterminale by CLSI M11-A6 agar dilution method
Ruminococcus torques = assay: Antibacterial activity against Ruminococcus torques by CLSI M11-A6 agar dilution method; conditions: Mediterraneibacter torques
[3] = tested on: Sutterella wadsworthensis; assay: Antibacterial activity against Sutterella wadsworthensis by CLSI M11-A6 agar dilution method
[4] = tested on: Parabacteroides distasonis; assay: Antibacterial activity against Parabacteroides distasonis by CLSI M11-A6 agar dilution method
Bacteroides ovatus = assay: Antibacterial activity against Bacteroides ovatus by CLSI M11-A6 agar dilution method
[5] = tested on: Enterocloster clostridioformis; assay: Antibacterial activity against Clostridium clostridioforme by CLSI M11-A6 agar dilution method
Coriobacterium = assay: Antibacterial activity against […] by CLSI M11-A6 agar dilution method
[6] = tested on: Peptostreptococcus anaerobius; assay: Antibacterial activity against Peptostreptococcus anaerobius by CLSI M11-A6 agar dilution method
Prevotella nigrescens = assay: Antibacterial activity against Prevotella nigrescens by CLSI M11-A6 agar dilution method
Ruminococcus lactaris = assay: Antibacterial activity against Ruminococcus lactaris by CLSI M11-A6 agar dilution method
Hoylesella oralis = assay: Antibacterial activity against Prevotella oralis by CLSI M11-A6 agar dilution method
Clostridium leptum = assay: Antibacterial activity against Clostridium leptum by CLSI M11-A6 agar dilution method
Prevotella bivia = assay: Antibacterial activity against Prevotella bivia by CLSI M11-A6 agar dilution method
Ruminococcus obeum = assay: Antibacterial activity against Ruminococcus obeum by CLSI M11-A6 agar dilution method; conditions: Blautia obeum
[7] = tested on: Paeniclostridium sordellii; assay: Antibacterial activity against Clostridium sordellii by CLSI M11-A6 agar dilution method; conditions: Paraclostridium sordellii
Finegoldia magna = assay: Antibacterial activity against Finegoldia magna by CLSI M11-A6 agar dilution method
[8] = tested on: Bifidobacterium pseudolongum; assay: Antibacterial activity against Bifidobacterium pseudolongum by CLSI M11-A6 agar dilution method
Ruminococcus gnavus = assay: Antibacterial activity against Ruminococcus gnavus by CLSI M11-A6 agar dilution method; conditions: Mediterraneibacter gnavus
Clostridium sporogenes = assay: Antibacterial activity against Clostridium sporogenes by CLSI M11-A6 agar dilution method
Clostridium sp. = assay: Antibacterial activity against Clostridium sp. by CLSI M11-A6 agar dilution method
[9] = tested on: Bacteroides thetaiotaomicron; assay: Antibacterial activity against Bacteroides thetaiotaomicron by CLSI M11-A6 agar dilution method
Bifidobacterium bifidum = assay: Antibacterial activity against Bifidobacterium bifidum by CLSI M11-A6 agar dilution method
Parvimonas micra = assay: Antibacterial activity against Peptostreptococcus micros by CLSI M11-A6 agar dilution method
Eggerthella lenta = assay: Antibacterial activity against Eggerthella lenta by CLSI M11-A6 agar dilution method
Clostridium bolteae = assay: Antibacterial activity against Clostridium bolteae by CLSI M11-A6 agar dilution method; conditions: Enterocloster bolteae
Streptococcus anginosus = assay: Antibacterial activity against Streptococcus anginosus by CLSI M11-A6 agar dilution method
Blautia producta = assay: Antibacterial activity against Ruminococcus productus by CLSI M11-A6 agar dilution method
Bifidobacterium dentium = assay: Antibacterial activity against Bifidobacterium dentium by CLSI M11-A6 agar dilution method
[10] = tested on: Propionibacterium propionicum; assay: Antibacterial activity against Propionibacterium propionicus by CLSI M11-A6 agar dilution method; conditions: Arachnia propionica
Clostridioides difficile = assay: Antibacterial activity against Clostridium difficile by CLSI M11-A6 agar dilution method
Clostridium hathewayi = assay: Antibacterial activity against Clostridium hathewayi by CLSI M11-A6 agar dilution method; conditions: Hungatella hathewayi
Parabacteroides merdae = assay: Antibacterial activity against Parabacteroides merdae by CLSI M11-A6 agar dilution method
Prevotella corporis = assay: Antibacterial activity against Prevotella corporis by CLSI M11-A6 agar dilution method
Blautia luti = assay: Antibacterial activity against Ruminococcus luti by CLSI M11-A6 agar dilution method
[11] = tested on: Clostridium celerecrescens; assay: Antibacterial activity against Clostridium celerecrescens by CLSI M11-A6 agar dilution method; conditions: Lacrimispora celerecrescens
[12] = tested on: Peptoniphilus asaccharolyticus; assay: Antibacterial activity against Peptoniphilus asaccharolyticus by CLSI M11-A6 agar dilution method
Bilophila wadsworthia = assay: Antibacterial activity against Bilophila wadsworthia by CLSI M11-A6 agar dilution method
Clostridium beijerinckii = assay: Antibacterial activity against Clostridium beijerinckii by CLSI M11-A6 agar dilution method
Ruminococcus albus = assay: Antibacterial activity against Ruminococcus albus by CLSI M11-A6 agar dilution method; conditions: Hominimerdicola alba

CCCCCCCCCC(=O)N[C@@H](Cc1c[nH]c2ccccc12)C(=O)N[C@H](CC(N)=O)C(=O)N[C@@H](CC(=O)O)C(=O)N[C@@H]1C(=O)NCC(=O)N[C@@H](CCCN)C(=O)N[C@@H](CC(=O)O)C(=O)N[C@H](C)C(=O)N[C@@H](CC(=O)O)C(=O)NCC(=O)N[C@H](CO)C(=O)N[C@@H]([C@H](C)CC(=O)O)C(=O)N[C@@H](CC(=O)c2ccccc2N)C(=O)O[C@@H]1C
8 µg/mL: MIC90 [2] | MIC90 (Clostridium leptum) | MIC90 [7] | MIC90 (Clostridium sporogenes) | MIC90 (Clostridium sp.) | MIC90 [11] | MIC90 (Clostridium beijerinckii)
0.5 µg/mL: MIC50 (Ruminococcus obeum) | MIC90 (Ruminococcus obeum) | MIC50 (Clostridioides difficile)
0.25 µg/mL: MIC90 (Ruminococcus gnavus)
4 µg/mL: MIC90 [5] | MIC90 [6] | MIC90 (Finegoldia magna) | MIC90 (Parvimonas micra) | MIC50 (Clostridium bolteae) | MIC90 (Clostridium bolteae) | MIC90 (Streptococcus anginosus) | MIC90 [12]
2 µg/mL: MIC90 (Clostridium subterminale) | MIC90 (Ruminococcus torques) | MIC50 [5] | MIC90 (Ruminococcus lactaris) | MIC50 (Streptococcus anginosus) | MIC90 (Blautia producta) | MIC90 (Clostridium hathewayi) | MIC90 (Blautia luti) | MIC90 (Ruminococcus albus)
> 128 µg/mL: MIC (Hoylesella loescheii) | MIC50 (Hoylesella loescheii) | MIC90 (Hoylesella loescheii) | MIC (Prevotella oris) | MIC50 (Prevotella oris) | MIC90 (Prevotella oris) | MIC [3] | MIC50 [3] | MIC90 [3] | MIC [4] | MIC50 [4] | MIC90 [4] | MIC (Bacteroides ovatus) | MIC50 (Bacteroides ovatus) | MIC90 (Bacteroides ovatus) | MIC (Prevotella nigrescens) | MIC50 (Prevotella nigrescens) | MIC90 (Prevotella nigrescens) | MIC (Hoylesella oralis) | MIC50 (Hoylesella oralis) | MIC90 (Hoylesella oralis) | MIC (Prevotella bivia) | MIC50 (Prevotella bivia) | MIC90 (Prevotella bivia) | MIC [9] | MIC50 [9] | MIC90 [9] | MIC (Parabacteroides merdae) | MIC50 (Parabacteroides merdae) | MIC90 (Parabacteroides merdae) | MIC (Prevotella corporis) | MIC50 (Prevotella corporis) | MIC90 (Prevotella corporis) | MIC (Bilophila wadsworthia) | MIC50 (Bilophila wadsworthia) | MIC90 (Bilophila wadsworthia)
≤ 0.12 µg/mL: MIC50 (Ruminococcus gnavus)
1 µg/mL: MIC50 [1] | MIC50 [2] | MIC50 (Clostridium subterminale) | MIC50 (Ruminococcus torques) | MIC50 (Coriobacterium) | MIC50 [6] | MIC50 (Ruminococcus lactaris) | MIC50 (Clostridium leptum) | MIC50 [7] | MIC50 (Finegoldia magna) | MIC50 [8] | MIC50 (Clostridium sporogenes) | MIC50 (Clostridium sp.) | MIC50 (Bifidobacterium bifidum) | MIC50 (Parvimonas micra) | MIC50 (Eggerthella lenta) | MIC50 (Blautia producta) | MIC50 (Bifidobacterium dentium) | MIC50 [10] | MIC90 (Clostridioides difficile) | MIC50 (Clostridium hathewayi) | MIC50 (Blautia luti) | MIC50 [11] | MIC50 [12] | MIC50 (Clostridium beijerinckii) | MIC50 (Ruminococcus albus)
32 µg/mL: MIC90 [1] | MIC90 (Coriobacterium) | MIC90 [8] | MIC90 (Bifidobacterium bifidum) | MIC90 (Eggerthella lenta) | MIC90 (Bifidobacterium dentium) | MIC90 [10]

CCC[C@@H]1C[C@@H](C(=O)N[C@@H]([C@H]2O[C@H](SC)[C@H](O)[C@@H](O)[C@H]2O)[C@H](C)Cl)N(C)C1 [CLINDAMYCIN]
0.5 µg/mL: MIC50 (Clostridium subterminale) | MIC90 (Streptococcus anginosus) | MIC50 (Clostridium hathewayi) | MIC50 (Bilophila wadsworthia)
16 µg/mL: MIC50 [3]
4 µg/mL: MIC90 [2] | MIC90 (Clostridium leptum) | MIC90 [7] | MIC90 (Clostridium sporogenes) | MIC90 (Clostridium sp.) | MIC50 [9] | MIC90 (Clostridium bolteae) | MIC50 (Clostridioides difficile) | MIC90 [11] | MIC90 (Clostridium beijerinckii)
64 µg/mL: MIC90 [4] | MIC90 (Parabacteroides merdae)
8 µg/mL: MIC90 (Clostridium subterminale)
≤ 0.12 µg/mL: MIC (Hoylesella loescheii) | MIC50 (Hoylesella loescheii) | MIC90 (Hoylesella loescheii) | MIC (Prevotella oris) | MIC50 (Prevotella oris) | MIC90 (Prevotella oris) | MIC50 [1] | MIC50 (Ruminococcus torques) | MIC50 (Coriobacterium) | MIC (Prevotella nigrescens) | MIC50 (Prevotella nigrescens) | MIC90 (Prevotella nigrescens) | MIC50 (Ruminococcus lactaris) | MIC (Hoylesella oralis) | MIC50 (Hoylesella oralis) | MIC90 (Hoylesella oralis) | MIC (Prevotella bivia) | MIC50 (Prevotella bivia) | MIC90 (Prevotella bivia) | MIC50 (Ruminococcus obeum) | MIC90 (Ruminococcus obeum) | MIC50 [8] | MIC50 (Ruminococcus gnavus) | MIC50 (Bifidobacterium bifidum) | MIC50 (Eggerthella lenta) | MIC50 (Blautia producta) | MIC50 (Bifidobacterium dentium) | MIC50 [10] | MIC (Prevotella corporis) | MIC50 (Prevotella corporis) | MIC90 (Prevotella corporis) | MIC50 (Blautia luti) | MIC50 (Ruminococcus albus)
2 µg/mL: MIC90 (Ruminococcus torques) | MIC50 [4] | MIC50 (Bacteroides ovatus) | MIC90 [5] | MIC90 (Ruminococcus lactaris) | MIC50 (Clostridium bolteae) | MIC90 (Blautia producta) | MIC90 (Clostridium hathewayi) | MIC50 (Parabacteroides merdae) | MIC90 (Blautia luti) | MIC90 (Ruminococcus albus)
0.25 µg/mL: MIC90 (Ruminococcus gnavus)
1 µg/mL: MIC90 [1] | MIC90 (Coriobacterium) | MIC90 [8] | MIC90 (Bifidobacterium bifidum) | MIC90 (Eggerthella lenta) | MIC90 (Bifidobacterium dentium) | MIC90 [10] | MIC90 (Bilophila wadsworthia)
128 µg/mL: MIC90 [3] | MIC90 (Clostridioides difficile)
> 128 µg/mL: MIC90 (Bacteroides ovatus) | MIC90 [6] | MIC90 (Finegoldia magna) | MIC90 [9] | MIC90 (Parvimonas micra) | MIC90 [12]
